Test [1] deals with plasma hemostasis. The test is described as follows: Autocoagulation test (coagulating activity A) after intravenous administration. The class given is in vivo, rabbit. Particulars: for effect on the coagulation activity according to the autocoagulation test: doses 15.0, 30.0, 60.0 mg/kg. Here is the method: (§1) The investigations were performed on 72 rabbits of the “Chinchilla” breed with a mass of 2.5±0.3 kg, who were administered which solutions of compounds 2, 15, 21, 37 in doses of 15, 30 and 60 mg/kg intravenously. The experiments included the thrombin-test (series No. 7300) and the coagulability-test (series No. 5000) purchased from the scientific-and-production association (SPA) “Renam”, thromboplastin (series No. 240600) and calcium chloride purchased from the SPA “MedioLab”
(§2) The static parameters of the blood and plasma coagulation (partial activated thromboplastin time, thrombin time, maximum coagulation activity (test for auto coagulation) were determined using the Behnk Electronic coagulometer (Germany). The operating principle of this instrument is based on the fact that the formed blood clot breaks the contacts of the pulse counter in the flask-pin circuit, said pin permanently oscillating in a vertical plane. The moment of formation of the clot is registered by stopping the stop watch hand.
(§3) The measurements were effected at a constant temperature of 37° C. maintained by a temperature control unit.
Compounds 2, 15, 21, 37 according to the invention at a concentration of 15, 30 and 60 mg/kg were intravenously administered to the above experimental animals and their blood samples were taken off 15, 30, 60 and 120 minutes after the administration.
Added to 0.2 ml of plasma obtained by centrifuging citrate blood at 1500 rev/min within 10 minutes was a glycosylate-calcium mixture (2.0 ml 0.222% CaCl2+0.1 ml of investigated citrate blood) 4, 6, 8, 10 minutes after the preparation of this mixture and the time of coagulation in the sample was determined.
The obtained results in seconds were translated in factors of coagulating activity A in percent, which specify the state of both the coagulating and anticoagulating parts of the blood coagulating system. The results of the experiments are given in Table 7. • The effect of the compounds according to the invention on the values of coagulating activity A by the data of autocoagulation test with intravenous administration of the compounds to the rabbits

The test system of test [2] is plasma hemostasis. The test is described as follows: Thrombin time after intravenous administration. In kind it is in vivo, rabbit. Here is the method: as §1, §2, §3
The “thrombin time” characterizes the rate of transformation of fibrinogen into fibrin. It was determined by measuring the coagulation time of plasma deprived of thrombocytes under the effect of thrombin standardized by the control plasma.
0.2 ml of a thrombin solution was added to 0.2 ml of the test blood plasma of experimental animals, from whom the blood was taken 15, 30, 60 and 120 minutes after the intravenous administration of compounds 2, 15, 21, 37 according to the invention in doses of 15, 30, 60 mg/kg incubated for 1 minute at a temperature of 37° C. and the time of formation of clot T2 in seconds in a coagulometer of the Behnk Electronic Company (Germany).

A short description of test [3]: Morphine abstinence model: nitrites/nitrates NOX− in blood plasma, liver and brain. In kind it is in vivo, rats Wistar. Particulars: 20.0 mg/kg intramuscularly; for Nitrites in liver: control 0.260 ± 0.023; for Nitrites in brain: Cortex of cerebrum: control 4.63 ± 0.29; for Nitrites in brain: Mesencephalon: control 5.66 ± 0.19; for Nitrites in brain: Hypothalamus: control 6.57 ± 0.50; for Nitrites in blood plasma: control 18.30 ± 2.14. Here is the method:
The experiments were carried out on rats in series of 7 animals on each compound according to the invention. Non-morphinized animal with not administered with compounds according to the invention were used as a control group. […] Then the rats were decapitated, the blood from somnolent arteries was collected in test tubes with solution EDTA as an anticoagulant, centrifuged at 1500 g for 15 minutes at 4° C.
To estimate the intensity of metabolism of nitrogen oxide in rats, quantitative determination of stable metabolites of nitrogen oxide—nitrites and nitrates NOX^− in the blood plasma, supernatanates of the liver and thymus gland, a study was conducted by a spectrometric method, and in the brain supernatanates by a […] method.
The spectrometric method is based the reaction of nitrites with the Griss reagent (a mixture of 2% solution of sulfanilamide and 0.2% N-(1-naphthyl)ethylene diamine. At the first step the nitrite reacts with sulfanilamide with formation of diazonium salt, and then with the second component to form azo dye with an adsorption maximum at 540 nm. For reduction of nitrates into nitrites, a fermentative method was used with bacterial reductase nitrate (Grisham M. B. et al., 1995). The samples of plasma and supernathant of the liver deproteinizated at 100° C. for 5 minutes incubated for 30 minutes at 37° C. in 50.0 mM of HEPES pH 7.4 in the presence of 0.2 unit/ml of Aspergillus reductase nitrate, 5.0 mkM of FAD and 0.1 mM of NAD-Ph. At the end of the reaction lactate dehydrogenase and pyruvate were added for isolation of NAD-Ph interfering with the Griss reaction. Then the Griss reagent was added and after 10-minute incubation the light absorption of the samples was measured at 540 nm. To amount of NOX^− was calculated using sodium nitrate as a standard.
The fluorometric method is based on calculation of the nitrite level by the intensity fluorescence of 2,3-diaminonaphthotriazole, a product of reaction of 2,3-diaminonaphthalene (DAN) and nitrite in an acidic medium (Misko T. R., Schilling R. J., Salvemini D. et al. “A fluorometric assay for the measurement of nitrite of biological samples”. Anal. Biochem., 1993, v. 214, p. 11-16). The brain supernatants deproteinizated at 100° C. were placed in a nitrite regenerating system containing 0.125 unit/ml of nitrate reductases, 25 mkM NADPh and 25 mkM FAD prepared in a 20-mM Tris-HCl buffer with pH 7.6 and incubated for 30 minutes at 37° C. The lactate dehydrogenase/pyruvate system was used for oxidation of the NADPh. Then 316 mkM of the DAN solution in 0.62 M of hydrochloric acids were added and the mixture was incubated for 10 minutes in darkness.
280 mM of NaOH were added for stabilization of the fluorescence of the formed 2,3-diaminonaphthotriazole. The fluorescence intensity was measured in the spectrofluorimeter Hitachi F-3000 at a wavelength of excitation of 365 nm and an emission of 405 nm. The concentration of NOX^− in the brain was calculated by means of a standard solution of sodium nitrate.

The mark [4] stands for this setting: 15.0 mg/kg intravenously, after 15 minutes, control 85.6.
Where [5] appears, read: 15.0 mg/kg intravenously, after 30 minutes, control 85.6.
[6] abbreviates: 15.0 mg/kg intravenously, after 60 minutes, control 85.6.
Setting [7] is: 15.0 mg/kg intravenously, after 120 minutes, control 85.6.
Setting [8] is: 30.0 mg/kg intravenously, after 15 minutes, control 70.0.
Where [9] appears, read: 30.0 mg/kg intravenously, after 30 minutes, control 70.0.
[10] abbreviates: 30.0 mg/kg intravenously, after 60 minutes, control 70.0.
[11] abbreviates: 30.0 mg/kg intravenously, after 120 minutes, control 70.0.
The mark [12] stands for this setting: 60.0 mg/kg intravenously, after 15 minutes, control 65.9.
The mark [13] stands for this setting: 60.0 mg/kg intravenously, after 30 minutes, control 65.9.
[14] abbreviates: 60.0 mg/kg intravenously, after 60 minutes, control 65.9.
The mark [15] stands for this setting: 60.0 mg/kg intravenously, after 120 minutes, control 65.9.
[16] abbreviates: 15.0 mg/kg intravenously, after 15 minutes, control 15.8.
The mark [17] stands for this setting: 15.0 mg/kg intravenously, after 30 minutes, control 15.8.
Setting [18] is: 15.0 mg/kg intravenously, after 60 minutes, control 15.8.
The mark [19] stands for this setting: 15.0 mg/kg intravenously, after 120 minutes, control 15.8.
Setting [20] is: 30.0 mg/kg intravenously, after 15 minutes, control 14.7.
Where [21] appears, read: 30.0 mg/kg intravenously, after 30 minutes, control 14.7.
Setting [22] is: 30.0 mg/kg intravenously, after 60 minutes, control 14.7.
Setting [23] is: 30.0 mg/kg intravenously, after 120 minutes, control 14.7.
The mark [24] stands for this setting: 60.0 mg/kg intravenously, after 15 minutes, control 15.2.
[25] abbreviates: 60.0 mg/kg intravenously, after 30 minutes, control 15.2.
Where [26] appears, read: 60.0 mg/kg intravenously, after 60 minutes, control 15.2.
Setting [27] is: 60.0 mg/kg intravenously, after 120 minutes, control 15.2.

Marks after values point to notes of the source that are not given here.

`Nc1ccnc2c(=O)n([C@@H]3O[C@H](CO)[C@@H](O)[C@H]3O)[nH]c(=O)c12` [Compound 2, 4-amino-7-(β-D-ribofuranosile)pyrido[2,3-d]-6H-pyridazine-5,8-dione]: the “coagulating activity A (autocoagulation test)” value in test [1] (setting [4]) worked out at 80.2%; in test [1] (setting [5]), 100.0%; in test [1] (setting [6]), 87.4%; in test [1] (setting [7]), 98.0%; in test [1] (setting [8]) it was 98.4%; in test [1] (setting [9]), 71.2%. Moreover, the “coagulating activity A (autocoagulation test)” value in test [1] (setting [10]) amounted to 104.2%; in test [1] (setting [11]) it was 70.9%; in test [1] (setting [12]), 72.3%; in test [1] (setting [13]), 60.8%; in test [1] (setting [14]), 62.5%; in test [1] (setting [15]), 65.7%. For the same molecule, the “effect on the coagulation activity according to the autocoagulation test” value in test [1] is given as “have no effect on the coagulation activity”. Moreover, the “thrombin time, T2” value in test [2] (setting [16]) is given as 16.2* s; in test [2] (setting [17]) it was 17.0* s; in test [2] (setting [18]) it was 16.0* s; in test [2] (setting [19]), 15.3* s; in test [2] (setting [20]), 17.8* s; in test [2] (setting [21]), 18.4* s. Also, the “thrombin time, T2” value is 19.2* s in test [2] (setting [22]); 15.3* s in test [2] (setting [23]); 16.0* s in test [2] (setting [24]); 16.9* s in test [2] (setting [25]); 15.9* s in test [2] (setting [26]); 15.3* s in test [2] (setting [27]).

For the molecule `Nc1cnc2c(=O)n([C@@H]3O[C@H](CO)[C@@H](O)[C@H]3O)[nH]c(=O)c2n1.[Na]` [Compound 21, sodium salt of 3-amino-7-(β-D-ribofuranosile)pyrazine[2,3-d]-6H-pyridazine-5,8-dione], the “coagulating activity A (autocoagulation test)” value in test [1] (setting [4]) was 81.4%; in test [1] (setting [5]), 101.3%; in test [1] (setting [6]), 86.5%; in test [1] (setting [7]), 97.4%; in test [1] (setting [8]) it was 97.2%; in test [1] (setting [9]) it was 69.1%. Also, the “coagulating activity A (autocoagulation test)” value in test [1] (setting [10]) is 103.7%; in test [1] (setting [11]), 71.0%; in test [1] (setting [12]), 71.9%; in test [1] (setting [13]), 62.1%; in test [1] (setting [14]), 63.7%; in test [1] (setting [15]), 66.2%. Further, the “effect on the coagulation activity according to the autocoagulation test” value in test [1] is listed as “have no effect on the coagulation activity”. Further, the “thrombin time, T2” value in test [2] (setting [16]) is given as 16.4* s; in test [2] (setting [17]), 17.7* s; in test [2] (setting [18]), 16.1* s; in test [2] (setting [19]) it was 15.7* s; in test [2] (setting [20]), 17.9* s; in test [2] (setting [21]), 18.8* s. The “thrombin time, T2” value is 19.0* s in test [2] (setting [22]); 15.6* s in test [2] (setting [23]); 16.2* s in test [2] (setting [24]); 17.7* s in test [2] (setting [25]); 16.3* s in test [2] (setting [26]); 15.7* s in test [2] (setting [27]).

As for `O=c1[nH][nH]c(=O)c2ncccc12.[Li]` [Compound 6, lithium salt of pyrido[2,3-d]-6H-pyridazine-5,8-dione], in test [3] (Control + Compound), the Nitrites in liver is on record as 0.245 ± 0.010 nmol/mg of protein, the “Nitrites in brain: Cortex of cerebrum” value is on record as 4.59 ± 0.44 nmol/mg of protein, the “Nitrites in brain: Mesencephalon” value is 7.01 ± 0.82 nmol/mg of protein and the “Nitrites in brain: Hypothalamus” value is recorded as 6.94 ± 0.67 nmol/mg of protein. In addition, the “Nitrites in blood plasma” value in test [3] (Control + Compound) is 15.83 ± 1.21 mkmol/ml. Further, in test [3] (Control + Morphine + compound), the Nitrites in liver was 0.294 ± 0.02 nmol/mg of protein, the “Nitrites in brain: Cortex of cerebrum” value is recorded as 5.12 ± 0.18 nmol/mg of protein, the “Nitrites in brain: Mesencephalon” value is recorded as 5.76 ± 0.94 nmol/mg of protein and the “Nitrites in brain: Hypothalamus” value is recorded as 6.72 ± 0.94 nmol/mg of protein. Besides, in test [3] (Control + Morphine + compound), the “Nitrites in blood plasma” value was 15.86 ± 1.20 mkmol/ml.
